Assay results reported in patent publication US20060018872A1, “Poly(lactic acid) copolymer hydrogels and related methods of drug delivery” (priority 2004, published 2006).
In brackets after ≈: the same amount, converted by molar mass. Structures can show the parent of a compound that is named as a salt. Values belong to the compound of their own block, whether it stands above or below them.

Columns and labels:
[1] = cited from earlier work
[2] = physchem
Source text: The use of thermo-reversible triblock gels (Pluronics) as delivery agents for anti-inflammatories (naproxen and indomethacin), local anesthetics, and anti-cancer agents has been studied (Sharma, P. K. and Bhatia, S. R. Effect of Anti-Inflammatories on Pluronic® F127: Micellar Assembly, Gelation and Partitioning. Int J Pharmaceutics, in press, 2004). An ultraviolet spectroscopy technique has been developed to measure rapidly the solubility and micelle-water partition coefficients of hydrophobic pharmaceuticals in micellar gels and has been applied to PLA-PEO-PLA hydrogels. In addition to evaluating partitioning, release kinetics in PLA-PEO-PLA systems have also been studied.

[3] = Release kinetics of pharmaceuticals from PLA-PEO-PLA gels at 25° C.; format: physicochemical; conditions: both polymers (1L and 2D/L), FIG. 7A

Compound: CC1=C(CC(=O)O)c2cc(F)ccc2/C1=C\c1ccc([S+](C)[O-])cc1 (centres unmarked) [sulindac]
time of complete release ([1]; from poly(styrene-divinylbenzene) microspheres): 24 h

micelle-water partition coefficient [2]: 108±8
solubility ([2]; water): 0.025 mg/mL (≈ 69.9 µM)
Compound: COc1ccc2c(c1)c(CC(=O)O)c(C)n2C(=O)c1ccc(Cl)cc1 [Indomethacin, indomethacin]

Compound: CCCCNc1ccc(C(=O)OCCN(C)C)cc1 [tetracaine hydrochloride]
release behavior ([1]; from poly(DL-lactic-co-glycolic acid)): burst release

Compound: COC(=O)c1ccc(O)cc1 [methyl paraben]
release of methyl paraben from PLA-PEO-PLA gels [3]: majority of the methyl paraben being quickly released within the first five hours
